SMILES strings stand for the structures.

The IC50 is the concentration needed to halve the response being measured.

T1 sequence (P26663 2420-3010): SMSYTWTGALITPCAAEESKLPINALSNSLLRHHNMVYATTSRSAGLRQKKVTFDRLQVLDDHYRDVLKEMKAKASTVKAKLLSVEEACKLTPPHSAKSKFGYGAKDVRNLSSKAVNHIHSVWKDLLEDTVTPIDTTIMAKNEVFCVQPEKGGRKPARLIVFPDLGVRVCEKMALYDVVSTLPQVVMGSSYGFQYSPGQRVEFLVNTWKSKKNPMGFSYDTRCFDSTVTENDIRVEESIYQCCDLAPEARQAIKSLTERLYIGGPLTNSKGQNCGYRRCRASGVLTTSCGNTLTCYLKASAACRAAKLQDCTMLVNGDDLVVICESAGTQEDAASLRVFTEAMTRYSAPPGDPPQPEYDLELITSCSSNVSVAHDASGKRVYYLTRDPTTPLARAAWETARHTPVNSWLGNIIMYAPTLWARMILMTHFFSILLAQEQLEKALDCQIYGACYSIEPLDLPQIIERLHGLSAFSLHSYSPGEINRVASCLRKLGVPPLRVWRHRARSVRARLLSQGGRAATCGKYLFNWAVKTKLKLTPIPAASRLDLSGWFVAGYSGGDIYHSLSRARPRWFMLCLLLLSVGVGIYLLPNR

The experiment has as its target T1, Recombinant HCV polymerase (Hepatitis C virus genotype 1b, UniProt P26663).
T1 construct: 2.5 pmoles (0.15 μg) HCV polymerase protein
In words: HCV Polymerase Inhibition Assay. It is filed as biochemical. The settings on record: primer/template-directed transcription, 30 minutes at 30° C.; category symbol. As to the method:
The above-described compounds were tested for activity with HCV polymerase. Recombinant HCV polymerase was tested for its ability to perform primer/template-directed transcription in assays that contained 30 mM tris-HCl pH 7.2, 10 mM MgCl2, 20 mM NaCl, 1 mM Dithiothreitol (DTT), 0.05% Tween-20, 1% glycerol, 5 pmoles biotin-dG12 (primer), 0.5 pmoles poly(rC)300 (template), 1 μM GTP, 0.1–0.3 uCi α-^32P-GTP, and 2.5 pmoles (0.15 μg) HCV polymerase protein in a final volume of 75 μL. Reactions were initiated by addition of enzyme and incubated 30 minutes at 30° C. Reactions were stopped by addition of 33 mM EDTA, and polynucleotide products were collected by filtration through Diethylaminoethyl (DE) Filtermat papers (Wallac). Unincorporated triphosphate was removed by washing the filters with 5% dibasic sodium phosphate. The filters were counted in a Packard Tri-Lux Microbeta scintillation counter (Packard Bioscience, Meriden, Conn.). Compounds to be tested were added at various concentrations, e.g., 1 μm to 50 μm, from stocks in 10% DMSO-water (final DMSO is 1% in reaction).
IC50 values were estimated from the primary cpm data (collected in triplicate) using the formula: cpm (I)=cpm (no inhibitor)(1−([I]/([I]+IC50))). An IC50 value represents the concentration (in μM) of a compound that provides 50% inhibition of polymerase-directed transcription in the above assay. A percent inhibition value is expressed for a compound where it was impractical to calculate an IC50 value with available data. If the IC50 estimated by the above equation was less than 200 nM, it was recalculated using the following equation, which takes into account the enzyme concentration (30 nM) in the assay: cpm(I)=cpm(no inhibitor)(1−((((I+IC50+30e−9)−sqrt(((I+IC50+30e−9)^2)−4×30e−9×I)))/((2) (30e−9))). Curve fitting was performed using the program KaleidaGraph (Synergy Software, Reading, Pa.).
Regarding `CC1(c2ccc(CCC3(C4CCCC4)CC(=O)CC(=O)O3)cc2F)OCCO1` (stereo not shown) [Example 60, 6-Cyclopentyl-6-{2-[3-fluoro-4-(2-methyl-[1,3]dioxolan-2-yl)-phenyl]-ethyl}-dihydro-pyran-2,4-dione], the IC50 fell in the range of 1 to 10 µM. The figure for `CC(=O)c1ccc(CCC2(C3CCCC3)CC(=O)CC(=O)O2)cc1Cl` (stereo not shown) [Example 61, 6-[2-(4-Acetyl-3-chloro-phenyl)-ethyl]-6-cyclopentyl-dihydro-pyran-2,4-dione] is 1 to 10 µM; for `CC1(c2ccc(CCC3(C4CCCC4)CC(=O)CC(=O)O3)cc2Cl)OCCO1` (stereo not shown) [Example 62, 6-{2-[3-Chloro-4-(2-methyl-[1,3]dioxolan-2-yl)-phenyl]-ethyl}-6-cyclopentyl-dihydro-pyran-2,4-dione] it is less than 1 µM.

As to `CC(=O)c1ccc(CCC2(C3CCCC3)CC(=O)CC(=O)O2)cc1` (stereo not shown) [Example 63, 6-[2-(4-Acetyl-phenyl)-ethyl]-6-cyclopentyl-dihydro-pyran-2,4-dione], the IC50 is 1 to 10 µM. Next, `CC(=O)c1cccc(CCC2(C3CCCC3)CC(=O)CC(=O)O2)c1` (stereo not shown) [Example 64, 6-[2-(3-Acetyl-phenyl)-ethyl]-6-cyclopentyl-dihydro-pyran-2,4-dione]: 1 to 10 µM; `COC(=O)c1ccc(CCC2(C3CCCC3)CC(=O)CC(=O)O2)cc1` (stereo not shown) [Example 65, 4-[2-(2-Cyclopentyl-4,6-dioxo-tetrahydro-pyran-2-yl)-ethyl]-benzoic acid methyl ester]: 1 to 10 µM.

Consider `CC1(c2ccc(CCC3(C4CCCC4)CC(=O)CC(=O)O3)cc2)CC(=O)CC(=O)O1` (stereo not shown) [Example 66], for which the IC50 was less than 1 µM. For `O=C1CC(=O)OC(CCc2ccc(C(=O)N3CCC(O)CC3)cc2)(C2CCCC2)C1` (stereo not shown) [Example 67, 6-Cyclopentyl-6-(2-[4-(4-hydroxy-piperidine-1-carbonyl)-phenyl]-ethyl}-dihydro-pyran-2,4-dione], the IC50 is more than 50 µM. Next, `O=C1CC(=O)OC(CCc2ccc(C(=O)N3CCOCC3)cc2)(C2CCCC2)C1` (stereo not shown) [Example 68, 6-Cyclopentyl-6-{2-[4-(morpholine-4-carbonyl)-phenyl]-ethyl}-dihydro-pyran-2,4-dione]: more than 50 µM; `CC(C)COc1ccc(CCC2(C3CCCC3)CC(=O)CC(=O)O2)cc1F` (stereo not shown) [Example 70, 6-Cyclopentyl-6-[2-(3-fluoro-4-isobutoxy-phenyl)-ethyl]-dihydro-pyran-2,4-dione]: 1 to 10 µM; `CCOc1ccc(CCC2(C3CCCC3)CC(=O)CC(=O)O2)cc1F` (stereo not shown) [Example 71, 6-Cyclopentyl-6-[2-(4-ethoxy-3-fluoro-phenyl)-ethyl]-dihydro-pyran-2,4-dione]: less than 1 µM. Next, `CCCOc1ccc(CCC2(C3CCCC3)CC(=O)CC(=O)O2)cc1F` (stereo not shown) [Example 72, 6-Cyclopentyl-6-[2-(3-fluoro-4-propoxy-phenyl)-ethyl]-dihydro-pyran-2,4-dione]: 1 to 10 µM; `CC(C)Oc1ccc(CCC2(C3CCCC3)CC(=O)CC(=O)O2)cc1F` (stereo not shown) [Example 73, 6-Cyclopentyl-6-[2-(3-fluoro-4-isopropoxy-phenyl)-ethyl]-dihydro-pyran-2,4-dione]: less than 1 µM; `COc1cc(F)c(CCC2(C3CCCC3)CC(=O)CC(=O)O2)cc1F` (stereo not shown) [Example 74, 6-Cyclopentyl-6-[2-(2,5-difluoro-4-methoxy-phenyl)-ethyl]-dihydro-pyran-2,4-dione]: 1 to 10 µM. Turning to `CCSc1ccc(CCC2(C3CCCC3)CC(=O)CC(=O)O2)cc1` (stereo not shown) [Example 75, 6-Cyclopentyl-6-[2-(4-ethylsulfanyl-phenyl)-ethyl]-dihydro-pyran-2,4-dione], the IC50 is 1 to 10 µM.

Take `CN(C)S(=O)(=O)c1ccc(CCC2(C3CCCC3)CC(=O)CC(=O)O2)cc1` (stereo not shown) [Example 76, 4-[2-(2-Cyclopentyl-4,6-dioxo-tetrahydro-pyran-2-yl)-ethyl]-dimethyl-benzenesulfonamide]: the 50% inhibitory concentration (IC50) fell in the range of 10 to 50 µM. The figure for `O=C1CC(=O)OC(CCc2ccc(OC3CCCC3)c(F)c2)(C2CCCC2)C1` (stereo not shown) [Example 77, 6-Cyclopentyl-6-[2-(4-cyclopentyloxy-3-fluoro-phenyl)-ethyl]-dihydro-pyran-2,4-dione] is 1 to 10 µM; for `O=C1CC(=O)OC(CCc2ccc(C3OCCO3)c(F)c2)(C2CCCC2)C1` (stereo not shown) [Example 78, 6-Cyclopentyl-6-[2-(4-[1,3]dioxolan-2-yl-3-fluoro-phenyl)-ethyl]-dihydro-pyran-2,4-dione] it is 1 to 10 µM; for `O=C1CC(=O)OC(CCc2ccc(N3CCCC3=O)cc2)(C2CCCC2)C1` (stereo not shown) [Example 79, 6-Cyclopentyl-6-{2-[4-(2-oxo-pyrrolidin-1-yl)-phenyl]-ethyl}-dihydro-pyran-2,4-dione] it is 1 to 10 µM.

For the molecule `O=C1CC(=O)OC(CCc2ccc(N3CCCC3=O)c(F)c2)(C2CCCC2)C1` (stereo not shown) [Example 80, 6-Cyclopentyl-6-{2-[3-fluoro-4-(2-oxo-pyrrolidin-1-yl)-phenyl]-ethyl}-dihydro-pyran-2,4-dione], the IC50 was 1 to 10 µM. Regarding `CC(C)Oc1ccc(CCC2(C3CCCC3)CC(=O)CC(=O)O2)cc1Cl` (stereo not shown) [Example 81, 6-[2-(3-Chloro-4-isopropoxy-phenyl)-ethyl]-6-cyclopentyl-dihydro-pyran-2,4-dione], the IC50 is less than 1 µM. In the case of `CC1(c2ccc(CCC3(C4CCCC4)CC(=O)CC(=O)O3)cc2Cl)CC(=O)CC(=O)O1` (stereo not shown) [Example 82, 6-Cyclopentyl-[6-(2-Chloro-phenyl)-6-methyl-dihydro-pyran-2,4-dione]-dihydro-pyran-2,4-dione], the IC50 is less than 1 µM. Next, `O=C1OC(CCc2ccc(O)cc2)(C2CCCC2)CC(O)=C1Sc1ccc2ccccc2c1` (stereo not shown) [Example 83]: 1 to 10 µM; `O=C1OC(CCc2ccc(O)cc2)(C2CCCC2)CC(O)=C1SCc1ccccc1` (stereo not shown) [Example 84, 3-Benzylsulfanyl-6-cyclopentyl-4-hydroxy-6-[2-(4-hydroxyphenyl)ethyl]-5,6-dihydropyran-2-one]: 1 to 10 µM; `O=C1OC(CCc2ccc(O)cc2)(C2CCCC2)CC(O)=C1Sc1cccc2ccccc12` (stereo not shown) [Example 85, 6-Cyclopentyl-4-hydroxy-6-[2-(4-hydroxyphenyl)ethyl]-3-(naphthalen-1-ylsulfanyl)-5,6-dihydropyran-2-one]: 1 to 10 µM. Next, `O=C1OC(CCc2ccc(OCc3ccccc3)cc2)(C2CCCC2)CC(O)=C1Sc1cccc2ccccc12` (stereo not shown) [Example 86, 6-[2-(4-Benzyloxyphenyl)ethyl]-6-cyclopentyl-4-hydroxy-3-(napthalen-1-ylsulfanyl)-5,6-dihydropyran-2-one]: 1 to 10 µM; `COc1ccc(CCC2(C3CCCC3)CC(O)=C(Cl)C(=O)O2)cc1` (stereo not shown) [Example 87, 3-Chloro-6-cyclopentyl-4-hydroxy-6-[2-(4-methoxyphenyl)ethyl]-5,6-dihydropyran-2-one]: 10 to 50 µM; `O=C1CC(CCc2ccccc2)(C2CCCC2)OC(=O)C1Cc1ccccc1` (stereo not shown) [Example 88, 3-benzyl-6-cyclopentyl-6-(2-phenylethyl)dihydro-2H-pyran-2,4(3H)-dione]: 10 to 50 µM. The figure for `Cc1cc(SC2=C(O)CC(C)(C)OC2=O)c(C(C)(C)C)cc1N` [Example 89, 3-[(4-amino-2-tert-butyl-5-methylphenyl)thio]-4-hydroxy-6,6-dimethyl-5,6-dihydro-2H-pyran-2-one] is more than 50 µM; for `COc1cc(OC)c(CCC2(C3CCCC3)CC(O)=C(Cl)C(=O)O2)cc1Cl` (stereo not shown) [Example 90] it is less than 1 µM. For `COc1cc(OC)c(CCC2(C3CCCC3)CC(O)=C(Sc3nc4nc(C)cc(C)n4n3)C(=O)O2)cc1Cl` (stereo not shown) [Example 91, 6-[2-(5-Chloro-2,4-dimethoxyphenyl)ethyl]-6-cyclopentyl-3-[(5,7-dimethyl[1,2,4]triazolo[1,5-a]pyrimidin-2-yl)thio]-4-hydroxy-5,6-dihydro-2H-pyran-2-one], the IC50 was less than 1 µM. The figure for `COc1ccc(CCC2(C3CCCC3)CC(O)=C(Sc3nc4nc(C)cc(C)n4n3)C(=O)O2)cc1` (stereo not shown) [Example 92, 6-[2-(4-methoxyphenyl)ethyl]-6-cyclopentyl-3-[(5,7-dimethyl[1,2,4]triazolo[1,5-a]pyrimidin-2-yl)thio]-4-hydroxy-5,6-dihydro-2H-pyran-2-one] is less than 1 µM; for `COc1cc(OC)c(CCC2(C3CCCC3)CC(O)=C(Sc3nc[nH]n3)C(=O)O2)cc1Cl` (stereo not shown) [Example 93, 6-[2-(5-Chloro-2,4-dimethoxyphenyl)ethyl]-6-cyclopentyl-4-hydroxy-3-(1H-1,2,4-triazol-3-ylthio)-5,6-dihydro-2H-puran-2-one] it is less than 1 µM; for `COc1cc(OC)c(CCC2(C3CCCC3)CC(O)=C(Sc3ccc(C(=O)O)cn3)C(=O)O2)cc1Cl` (stereo not shown) [Example 94, 6-({6-[2-(5-chloro-2,4-dimethoxyphenyl)ethyl]-6-cyclopentyl-4-hydroxy-2-oxo-5,6-dihydro-2H-pyran-3-yl}thio)nicotinic acid] it is less than 1 µM.

Values taken from US7115658B2 (priority 2002, dated 2006).
